Our source for the IC50 and inhibition values is patent publication US9512175B2, “Macrocyclic inhibitors of flaviviridae viruses” (Gilead Sciences, Inc., priority 2012, dated 2016).

Read-outs that look alike come from different tables or passages of the source.

One assay has as its target cyclophilin A (Homo sapiens, UniProt P62937). Put plainly: Cyclophilin A TR-FRET competitive binding assay. The following applies: IC50 ranges, competition with CsA-Cy5 for His-tagged CypA, two-hour incubation. How it is done:
Cyclophilin A TR-FRET Competitive Binding Assay
Inhibitor potency was measured using a competitive binding assay with a time-resolved fluorescence resonance energy transfer (TR-FRET) readout. […] An IC50 value was calculated using a four-parameter logistic fit.
In general terms: TR-FRET usually uses a lanthanide donor and a delayed reading to cut background.

The test system of assay [1] is HCV replicon (Replicon 1a). Put plainly: anti-HCV activity in Huh-7 cell line harboring a HCV replicon (Replicon 1a). Format: cell-based. The following applies: Hepatitis C virus, Huh-7, 72 h. Background: A replicon is a self-replicating genome or part of one, used to study replication in cells.
[2] abbreviates: read-out: Replicon 1a % inhibition at 1 μM, 1 μM, human hepatoma Huh-7 HCV replicon cells, 3 days, luciferase readout.
[3] abbreviates: read-out: Replicon 1a % inhibition at 1 μM.

Sequence of cyclophilin A (P62937 whole entry, species assumed): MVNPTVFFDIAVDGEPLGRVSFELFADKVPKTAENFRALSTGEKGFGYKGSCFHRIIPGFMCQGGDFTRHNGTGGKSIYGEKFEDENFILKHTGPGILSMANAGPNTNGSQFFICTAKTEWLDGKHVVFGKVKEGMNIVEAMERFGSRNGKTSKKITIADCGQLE

As to `CO[C@@H]1CCc2cc3cc(ccc3cn2)[C@@H](C)NC(=O)[C@@H]2CCCN(N2)C(=O)[C@H](C)NC(=O)[C@H](C(C)C)NC(=O)[C@@H]1C` [Compound 6], the IC50 on cyclophilin A (read-out: TR-FRET) is less than 100 nM. In assay [1] (setting [2]), the inhibition (usually the percentage by which the read-out fell short of the control) at 1 µM came to 86%.
`CC(C)[C@@H]1NC(=O)C/C=C/c2ccc3ncc(nc3c2)[C@@H](C)OC(=O)[C@@H]2CCCN(N2)C(=O)[C@H](C)NC1=O` [Compound 7]: the IC50 at cyclophilin A (read-out: TR-FRET) is less than 100 nM. In assay [1] (setting [2]), the inhibition at 1 µM amounted to 94%.
The corresponding values for `CC(C)[C@@H]1NC(=O)C/C=C/c2cc3cc(ccc3cn2)[C@@H](C)NC(=O)[C@@H]2CCCN(N2)C(=O)[C@H](C)NC1=O` [Compound 11] are less than 100 nM and 6%.
On to `CC(C)[C@@H]1NC(=O)C(C)(C)/C=C/c2ccc3ccc(nc3c2)[C@@H](C(F)(F)F)NC(=O)[C@@H]2CCCN(N2)C(=O)[C@H](C)NC1=O` [Compound 13], for which the IC50 at cyclophilin A (read-out: TR-FRET) was less than 100 nM. For the same compound, in assay [1] (setting [3]), the inhibition at 1 µM is 87%.
For `CC(C)[C@@H]1NC(=O)C/C=C/c2ccc3ncc(cc3c2)[C@@H](C)OC(=O)[C@@H]2CCCN(N2)C(=O)[C@H](C)NC1=O` [Compound 14], the IC50 on cyclophilin A (read-out: TR-FRET) was less than 100 nM. The inhibition at 1 µM in assay [1] (setting [2]) came out at 94%.
As for `CC(C)[C@@H]1NC(=O)C/C=C/c2cnc3ccc(cc3c2)[C@@H](C)OC(=O)[C@@H]2CCCN(N2)C(=O)[C@H](C)NC1=O` [Compound 15], at cyclophilin A (read-out: TR-FRET), the IC50 was less than 100 nM. For the same compound, in assay [1] (setting [2]), the inhibition at 1 µM was found to be 99%.
The corresponding values for `CC(C)[C@@H]1NC(=O)C/C=C/c2ccc3ccc(cc3n2)[C@@H](C)OC(=O)[C@@H]2CCCN(N2)C(=O)[C@H](C)NC1=O` [Compound 16] are 101 to 1000 nM and 94%.
`CC(C)[C@@H]1NC(=O)C(C)(C)/C=C/c2ccc3cnc(cc3c2)[C@@H](C)OC(=O)[C@@H]2CCCN(N2)C(=O)[C@H](C)NC1=O` [Compound 17]: the IC50 on cyclophilin A (read-out: TR-FRET) is less than 100 nM. For the same compound, the inhibition at 1 µM in assay [1] (setting [2]) came out at 100%.
For the compound `CC(C)[C@@H]1NC(=O)C(C)(C)CCc2ccc3cnc(cc3c2)[C@@H](C)OC(=O)[C@@H]2CCCN(N2)C(=O)[C@H](C)NC1=O` [Compound 18], the IC50 on cyclophilin A (read-out: TR-FRET) is less than 100 nM. The inhibition at 1 µM in assay [1] (setting [2]) worked out at 94%.
On to `CC[C@@H]1/C=C/c2cc3cc(ccc3cn2)[C@@H](C)OC(=O)[C@@H]2CCCN(N2)C(=O)[C@H](C)NC(=O)[C@H](C(C)C)NC1=O` [Compound 19], for which, at cyclophilin A (read-out: TR-FRET), the IC50 is less than 100 nM. Further, in assay [1] (setting [2]), the inhibition at 1 µM worked out at 97%.
The corresponding values for `CC1/C=C/c2cc3cc(ccc3cn2)[C@@H](C)OC(=O)[C@@H]2CCCN(N2)C(=O)[C@H](C)NC(=O)[C@H](C(C)C)NC1=O` (stereo partly drawn) [Compound 20] are less than 100 nM and 99%.
The corresponding values for `CC(C)[C@@H]1NC(=O)[C@H](C)C/C=C/c2cc3cc(ccc3cn2)[C@@H](C)OC(=O)[C@@H]2CCCN(N2)C(=O)[C@H](C)NC1=O` [Compound 21] are less than 100 nM and 93%.
With `CC(C)[C@@H]1NC(=O)C/C=C/c2cc3cc(ccc3cn2)[C@@H](C(F)(F)F)NC(=O)[C@@H]2CCCN(N2)C(=O)[C@H](C)NC1=O` [Compound 23], on cyclophilin A (read-out: TR-FRET), the IC50 was less than 100 nM. The inhibition at 1 µM in assay [1] (setting [2]) is 99%.
As for `CO[C@@H]1CC/C=C/c2ccc3c(c2)[C@@H](CC3)N(C)C(=O)[C@@H]2CCCN(N2)C(=O)[C@H](C)NC(=O)[C@H](C(C)C)NC(=O)[C@@H]1C` [Compound 25], at cyclophilin A (TR-FRET), the IC50 was 101 to 1000 nM. Further, the inhibition at 1 µM in assay [1] (setting [3]) was 71%.
Compound `CC(C)[C@@H]1NC(=O)[C@H](C)/C=C/c2ccc3ccc(nc3c2)[C@@H](C)OC(=O)[C@@H]2CCCN(N2)C(=O)[C@H](C)NC1=O` [Compound 26] registered an IC50 at cyclophilin A (TR-FRET) of less than 100 nM. The inhibition at 1 µM in assay [1] (setting [3]) was 99%.
At cyclophilin A (TR-FRET), `CC(C)[C@@H]1NC(=O)[C@@H](C)/C=C/c2ccc3ccc(nc3c2)[C@@H](C)OC(=O)[C@@H]2CCCN(N2)C(=O)[C@H](C)NC1=O` [Compound 27] returned an IC50 of less than 100 nM. Also, the inhibition at 1 µM in assay [1] (setting [3]) is 100%.
With `CO[C@@H]1CC/C=C/c2cccc(c2)C2CCCCN2C(=O)[C@@H]2CCCN(N2)C(=O)[C@H](C)NC(=O)[C@H](C(C)C)NC(=O)[C@@H]1C` (stereo partly drawn) [Compound 28], at cyclophilin A (read-out: TR-FRET), the IC50 lay in the range of 101 to 1000 nM. Besides, the inhibition at 1 µM in assay [1] (setting [2]) amounted to 56%.
The corresponding values for `CC(C)[C@@H]1NC(=O)C/C=C/c2ccc3nnc(cc3c2)[C@@H](C)OC(=O)[C@@H]2CCCN(N2)C(=O)[C@H](C)NC1=O` [Compound 32] are less than 100 nM and 71%.
The corresponding values for `CO[C@@H]1/C=C/c2cc3cc(ccc3cn2)[C@@H](C)OC(=O)[C@@]2(C)CCCN(N2)C(=O)[C@H](C)NC(=O)C(C(C)C)NC(=O)[C@@H]1C` (stereo partly drawn) [Compound 33] are 1000 to 10000 nM and 14%.
With `CC(C)[C@@H]1NC(=O)[C@H](C)C/C=C/COc2ccc(F)c(c2)[C@@H](C)OC(=O)C2CCCN(N2)C(=O)[C@H](C)NC1=O` (stereo partly drawn) [Compound 35], the IC50 on cyclophilin A (TR-FRET) was less than 100 nM. In addition, the inhibition at 1 µM in assay [1] (setting [3]) turned out to be 94%.
As to `CC(C)[C@@H]1NC(=O)[C@H](C)CCCCOc2ccc(F)c(c2)[C@@H](C)OC(=O)[C@@H]2CCCN(N2)C(=O)[C@H](C)NC1=O` [Compound 36], at cyclophilin A (read-out: TR-FRET), the IC50 was less than 100 nM. For the same compound, the inhibition at 1 µM in assay [1] (setting [2]) amounted to 73%.
As to `CO[C@@H]1/C=C/COc2cccc(c2)[C@@H](C(C)C)NC(=O)[C@@H]2CCCN(N2)C(=O)[C@H](C)NC(=O)[C@H](C(C)C)NC(=O)[C@@H]1C` [Compound 37, (E)-(2R,5S,11 S,14S,17R,18R)-2,14-Diisopropyl-18-methoxy-11,17-dimethyl-22-oxa-3,9,12,15,28-pentaaza-tricyclo[21.3.1.1*5,9*]octacosa-1 (27),19,23,25-tetraene-4,10,13,16-tetraone], the IC50 at cyclophilin A (TR-FRET) is less than 100 nM. Also, in assay [1] (setting [3]), the inhibition at 1 µM amounted to 76%.
As to `CC(C)[C@@H]1NC(=O)COc2ccc(cc2)-c2cccc(c2)[C@@H](C)OC(=O)[C@@H]2CCCN(N2)C(=O)[C@H](C)NC1=O` [Compound 38], the IC50 on cyclophilin A (read-out: TR-FRET) is less than 100 nM. The inhibition at 1 µM in assay [1] (setting [2]) was 98%.
For `CC(C)[C@@H]1NC(=O)[C@H](C)Oc2ccc(cc2)-c2cccc(c2)[C@@H](C)OC(=O)[C@@H]2CCCN(N2)C(=O)[C@H](C)NC1=O` [Compound 39], on cyclophilin A (read-out: TR-FRET), the IC50 is less than 100 nM. In addition, in assay [1] (setting [2]), the inhibition at 1 µM came out at 98%.
On to `CC(C)[C@@H]1NC(=O)[C@@H](C)Oc2ccc(cc2)-c2cccc(c2)[C@@H](C)OC(=O)[C@@H]2CCCN(N2)C(=O)[C@H](C)NC1=O` [Compound 40], for which the IC50 on cyclophilin A (read-out: TR-FRET) is less than 100 nM. Besides, the inhibition at 1 µM in assay [1] (setting [2]) came out at 96%.
The corresponding values for `CC(C)[C@@H]1NC(=O)COc2ccc(cc2)-c2cccc(n2)[C@@H](C)OC(=O)[C@@H]2CCCN(N2)C(=O)[C@H](C)NC1=O` [Compound 41] are less than 100 nM and 96%.
The corresponding values for `CC(C)[C@@H]1NC(=O)CCn2cc(cn2)-c2cccc(c2)[C@@H](C)OC(=O)[C@@H]2CCCN(N2)C(=O)[C@H](C)NC1=O` [Compound 42] are 101 to 1000 nM and 16%.
The corresponding values for `CC(C)[C@@H]1NC(=O)CCc2ccc(cc2)-c2cccc(c2)[C@@H](C)OC(=O)[C@@H]2CCCN(N2)C(=O)[C@H](C)NC1=O` [Compound 43] are less than 100 nM and 97%.
In the case of `CC(C)[C@@H]1NC(=O)CCc2ccc(cn2)-c2cccc(c2)[C@@H](C)OC(=O)[C@@H]2CCCN(N2)C(=O)[C@H](C)NC1=O` [Compound 44], the IC50 at cyclophilin A (read-out: TR-FRET) was less than 100 nM. Further, the inhibition at 1 µM in assay [1] (setting [2]) is 78%.
The corresponding values for `CC(C)[C@@H]1NC(=O)CCc2ccc(nc2)-c2cccc(c2)[C@@H](C)OC(=O)[C@@H]2CCCN(N2)C(=O)[C@H](C)NC1=O` [Compound 45] are less than 100 nM and 80%.
As for `CC(C)[C@@H]1NC(=O)[C@H](C)CCCc2cc3cc(ccc3cn2)[C@@H](C)OC(=O)[C@@H]2CCCN(N2)C(=O)[C@H](C)NC1=O` [Compound 46], the IC50 on cyclophilin A (read-out: TR-FRET) is less than 100 nM. For the same compound, in assay [1] (setting [2]), the inhibition at 1 µM came to 90%.
Consider `C[C@@H]1NC(=O)[C@H](CO)NC(=O)C/C=C/c2cc3cc(ccc3cn2)[C@@H](C)OC(=O)[C@@H]2CCCN(N2)C1=O` [Compound 47], for which the IC50 on cyclophilin A (read-out: TR-FRET) was in the range of 101 to 1000 nM. For the same compound, the inhibition at 1 µM in assay [1] (setting [2]) worked out at 9%.
The corresponding values for `C[C@@H]1NC(=O)[C@H]([C@@H](C)O)NC(=O)C/C=C/c2cc3cc(ccc3cn2)[C@@H](C)OC(=O)[C@@H]2CCCN(N2)C1=O` [Compound 48] are less than 100 nM and 40%.
On to `C[C@@H]1NC(=O)[C@H](CCn2ccnn2)NC(=O)C(C)(C)/C=C/c2cc3cc(ccc3cn2)[C@@H](C)OC(=O)[C@@H]2CCCN(N2)C1=O` [Compound 50], for which the IC50 at cyclophilin A (read-out: TR-FRET) lay in the range of 101 to 1000 nM. Besides, in assay [1] (setting [3]), the inhibition at 1 µM turned out to be 12%.
In the case of `C=CC[C@@H]1NC(=O)C(C)(C)/C=C/c2cc3cc(ccc3cn2)[C@@H](C)OC(=O)[C@@H]2CCCN(N2)C(=O)[C@H](C)NC1=O` [Compound 52], the IC50 at cyclophilin A (read-out: TR-FRET) is less than 100 nM. For the same compound, the inhibition at 1 µM in assay [1] (setting [2]) is 98%.
The corresponding values for `C[C@@H]1NC(=O)[C@H](C2CCCCC2)NC(=O)C/C=C/c2cc3cc(ccc3cn2)[C@@H](C)OC(=O)[C@@H]2CCCN(N2)C1=O` [Compound 53] are 101 to 1000 nM and 89%.
The corresponding values for `C[C@@H]1NC(=O)[C@H](Cc2ccccc2)NC(=O)C/C=C/c2cc3cc(ccc3cn2)[C@@H](C)OC(=O)[C@@H]2CCCN(N2)C1=O` [Compound 54] are less than 100 nM and 98%.
Take `C[C@@H]1NC(=O)[C@H](Cc2cccnc2)NC(=O)C(C)(C)/C=C/c2cc3cc(ccc3cn2)[C@@H](C)OC(=O)[C@@H]2CCCN(N2)C1=O` [Compound 55]: the IC50 on cyclophilin A (read-out: TR-FRET) was in the range of 101 to 1000 nM. Also, the inhibition at 1 µM in assay [1] (setting [2]) is 76%.
The corresponding values for `C[C@@H]1NC(=O)[C@H](CCc2ccccc2)NC(=O)C/C=C/c2cc3cc(ccc3cn2)[C@@H](C)OC(=O)[C@@H]2CCCN(N2)C1=O` [Compound 56] are 101 to 1000 nM and 47%.
